Experimental findings from US12090128B2, “Dispersible formulations of n-((r)-2,3-dihydroxypropoxy)-3,4-difluoro-2-(2-fluoro-4-iodo-phenylamino)-benazmide and uses thereof” (SpringWorks Therapeutics, Inc., priority 2021, dated 2024) are described below.

The series can be described thus: Storage stability of crystalline Form IV by XRPD and/or DSC. Type of series: physicochemical. The procedure: FIG. 3A is an XRPD corresponding to essentially pure Form IV of N—((R)-2,3-dihydroxypropoxy)-3,4-difluoro-2-(2-fluoro-4-iodo-phenylamino)-benzamide after storage for 68 months after production at 25° C. and ≤65% relative humidity.
FIG. 3B is an XRPD corresponding to essentially pure Form IV of N—((R)-2,3-dihydroxypropoxy)-3,4-difluoro-2-(2-fluoro-4-iodo-phenylamino)-benzamide after storage for 140 months after production at 25° C. and ≤65% relative humidity.
In some aspects, the XRPD pattern is generated using a PANALYTICAL® X'Pert Pro diffractometer using Ni-filtered Cu Kα (45 kV/40 mA) radiation and a step size of 0.03° 2θ with a X′CELERATOR® Real Time Multi-Strip detector, configured (a) on the incidental beam side as follows: variable divergence slits (10 mm irradiated length), 0.04 rad Soller slits, fixed anti-scatter slit (0.50°), and 10 mm beam mask, and (b) on the diffracted beam side as follows: variable anti-scatter slit (10 mm observed length) and 0.04 rad Soller slit or a BRUKER® D8® ADVANCE™ system using Cu Kα (40 kV/40 mA) radiation and a step size of 0.03° 2θ with a LYNXEYE™ detector, configured (a) on the incidental beam side as follows: Goebel mirror, mirror exit slit (0.2 mm), 2.5° Soller slit, beam knife, and (b) on the diffracted beam side as follows: anti-scatter slit (8 mm) and 2.5° Soller slit; wherein samples are mounted flat on zero-background Si wafers. […]

In the case of `O=C(NOC[C@H](O)CO)c1ccc(F)c(F)c1Nc1ccc(I)cc1F` [essentially pure Form IV, N—((R)-2,3-dihydroxypropoxy)-3,4-difluoro-2-(2-fluoro-4-iodo-phenylamino)-benzamide], the “XRPD pattern and/or DSC profile after storage” value is listed as “substantially unchanged” (storage for 68 months at standard warehouse conditions (15° C.-25° C. and ≤65% relative humidity), FIG. 3A); “substantially unchanged” (storage for ≥140 months at standard warehouse conditions (15° C.-25° C. and ≤65% relative humidity), FIG. 3B).
